target: T1, full-length ATR (Homo sapiens, UniProt Q13535); test: ATR Inhibition Assay (radioactive-phosphate incorporation); format: biochemical; details: Ki(app); 5 nM full-length ATR, 10 μM ATP, 800 μM target peptide, 25° C.
T1 construct: Assays were carried out at 25° C. in the presence of 5 nM full-length ATR
Experimental: Compounds were screened for their ability to inhibit ATR kinase using a radioactive-phosphate incorporation assay. Assays were carried out in a mixture of 50 mM Tris/HCl (pH 7.5), 10 mM MgCl2 and 1 mM DTT. Final substrate concentrations were 10 μM [γ-33P]ATP (3mCi 33P ATP/mmol ATP, Perkin Elmer) and 800 μM target peptide (ASELPASQPQPFSAKKK) (SEQ. ID. NO: 1).
Assays were carried out at 25° C. in the presence of 5 nM full-length ATR. An assay stock buffer solution was prepared containing all of the reagents listed above, with the exception of ATP and the test compound of interest. 13.5 μL of the stock solution was placed in a 96 well plate followed by addition of 2 μL of DMSO stock containing serial dilutions of the test compound (typically starting from a final concentration of 15 μM with 3-fold serial dilutions) in duplicate (final DMSO concentration 7%). The plate was pre-incubated for 10 minutes at 25° C. and the reaction initiated by addition of 15 μL [γ-33P]ATP (final concentration 10 μM).
The reaction was stopped after […] by the addition of 30 μL 0.1M phosphoric acid containing 2 mM ATP. A multiscreen phosphocellulose filter 96-well plate (Millipore, Cat no. MAPHN0B50) was pretreated with 100 μL 0.2M phosphoric acid prior to the addition of 45 μL of the stopped assay mixture. The plate was washed with 5×200 μL 0.2M phosphoric acid. After drying, 100 μL Optiphase ‘SuperMix’ liquid scintillation cocktail (Perkin Elmer) was added to the well prior to scintillation counting (1450 Microbeta Liquid Scintillation Counter, Wallac).
After removing mean background values for all of the data points, Ki(app) data were calculated from non-linear regression analysis of the initial rate data using the Prism software package (GraphPad Prism version 3.0cx for Macintosh, GraphPad Software, San Diego Calif., USA).
Below is a chart showing the ATR Inhibition Ki values of compounds of the disclosure.

T1 sequence (Q13535 whole entry): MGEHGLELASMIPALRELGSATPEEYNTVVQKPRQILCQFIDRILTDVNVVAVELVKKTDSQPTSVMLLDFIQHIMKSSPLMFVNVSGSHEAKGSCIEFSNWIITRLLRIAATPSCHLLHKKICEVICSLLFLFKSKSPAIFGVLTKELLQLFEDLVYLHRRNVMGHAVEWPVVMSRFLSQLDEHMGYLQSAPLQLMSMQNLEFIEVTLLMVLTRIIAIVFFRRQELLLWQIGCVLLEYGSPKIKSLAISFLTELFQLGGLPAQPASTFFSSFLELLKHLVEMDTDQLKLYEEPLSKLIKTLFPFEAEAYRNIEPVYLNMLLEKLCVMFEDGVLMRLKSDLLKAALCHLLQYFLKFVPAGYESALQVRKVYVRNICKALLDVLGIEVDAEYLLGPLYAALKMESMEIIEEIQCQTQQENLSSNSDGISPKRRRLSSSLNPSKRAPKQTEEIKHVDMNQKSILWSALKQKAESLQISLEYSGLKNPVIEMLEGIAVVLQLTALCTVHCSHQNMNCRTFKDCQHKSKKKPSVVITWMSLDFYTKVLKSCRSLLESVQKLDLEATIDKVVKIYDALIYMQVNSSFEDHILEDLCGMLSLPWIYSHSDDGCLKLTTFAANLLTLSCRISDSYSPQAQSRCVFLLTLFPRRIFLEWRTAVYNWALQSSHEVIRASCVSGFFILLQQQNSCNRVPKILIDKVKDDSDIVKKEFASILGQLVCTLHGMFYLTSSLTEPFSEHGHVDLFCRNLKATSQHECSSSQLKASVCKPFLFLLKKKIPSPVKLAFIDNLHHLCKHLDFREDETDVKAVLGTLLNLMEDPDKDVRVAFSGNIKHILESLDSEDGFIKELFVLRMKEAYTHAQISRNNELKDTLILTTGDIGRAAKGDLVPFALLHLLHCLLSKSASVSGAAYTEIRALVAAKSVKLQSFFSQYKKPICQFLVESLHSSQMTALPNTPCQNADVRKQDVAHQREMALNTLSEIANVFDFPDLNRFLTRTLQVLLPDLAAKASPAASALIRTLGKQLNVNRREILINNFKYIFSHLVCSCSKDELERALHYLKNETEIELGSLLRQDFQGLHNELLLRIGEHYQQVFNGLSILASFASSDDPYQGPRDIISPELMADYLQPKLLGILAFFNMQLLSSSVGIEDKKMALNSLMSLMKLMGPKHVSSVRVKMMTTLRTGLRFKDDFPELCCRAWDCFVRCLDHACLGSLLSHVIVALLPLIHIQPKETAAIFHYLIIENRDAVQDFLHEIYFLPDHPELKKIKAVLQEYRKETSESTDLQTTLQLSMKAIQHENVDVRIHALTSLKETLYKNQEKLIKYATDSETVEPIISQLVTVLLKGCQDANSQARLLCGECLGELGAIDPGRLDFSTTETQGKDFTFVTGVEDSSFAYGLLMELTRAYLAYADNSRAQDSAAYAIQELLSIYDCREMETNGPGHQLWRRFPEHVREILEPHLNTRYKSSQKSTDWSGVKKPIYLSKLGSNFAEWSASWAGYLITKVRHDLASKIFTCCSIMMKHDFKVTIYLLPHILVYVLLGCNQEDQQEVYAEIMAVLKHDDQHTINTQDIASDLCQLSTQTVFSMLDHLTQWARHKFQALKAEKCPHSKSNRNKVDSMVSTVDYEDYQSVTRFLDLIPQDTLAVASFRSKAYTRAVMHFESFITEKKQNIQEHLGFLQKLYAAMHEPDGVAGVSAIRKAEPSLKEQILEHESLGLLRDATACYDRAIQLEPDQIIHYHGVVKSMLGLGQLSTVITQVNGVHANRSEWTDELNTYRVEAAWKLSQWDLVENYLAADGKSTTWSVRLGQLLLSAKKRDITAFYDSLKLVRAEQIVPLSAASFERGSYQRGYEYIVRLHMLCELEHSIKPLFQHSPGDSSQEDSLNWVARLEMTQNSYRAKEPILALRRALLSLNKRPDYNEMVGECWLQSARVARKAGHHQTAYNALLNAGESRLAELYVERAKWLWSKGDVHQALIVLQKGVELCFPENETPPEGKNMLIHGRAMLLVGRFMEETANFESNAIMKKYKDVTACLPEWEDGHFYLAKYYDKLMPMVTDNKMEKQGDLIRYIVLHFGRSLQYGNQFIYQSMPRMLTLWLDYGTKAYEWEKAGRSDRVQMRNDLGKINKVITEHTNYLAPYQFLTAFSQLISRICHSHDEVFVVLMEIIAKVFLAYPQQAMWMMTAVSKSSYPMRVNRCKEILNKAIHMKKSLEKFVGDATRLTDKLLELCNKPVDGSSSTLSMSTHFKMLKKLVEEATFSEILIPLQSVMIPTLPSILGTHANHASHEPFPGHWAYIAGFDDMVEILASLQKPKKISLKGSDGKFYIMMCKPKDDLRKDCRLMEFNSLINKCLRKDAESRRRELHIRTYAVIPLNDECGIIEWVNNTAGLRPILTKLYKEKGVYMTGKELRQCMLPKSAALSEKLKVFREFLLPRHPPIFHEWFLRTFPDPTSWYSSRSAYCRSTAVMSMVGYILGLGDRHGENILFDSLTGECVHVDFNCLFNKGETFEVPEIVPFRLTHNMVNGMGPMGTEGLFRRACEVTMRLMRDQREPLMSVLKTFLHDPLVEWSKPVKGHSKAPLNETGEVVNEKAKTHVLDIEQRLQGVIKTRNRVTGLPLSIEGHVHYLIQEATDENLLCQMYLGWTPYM

Ki [µM] | SMILES
≤ 0.05 | CC(C)S(=O)(=O)c1ccc(-c2cnc3[nH]cc(N4Cc5ccc(OCCN(C)C)cc5C4=O)c3n2)cc1 [Compound I-46, 6-(2-(dimethylamino)ethoxy)-2-(2-(4-(isopropylsulfonyl)phenyl)-5H-pyrrolo[2,3-b]pyrazin-7-yl)isoindolin-1-one]
≤ 0.05 | CC(C)S(=O)(=O)c1ccc(-c2cnc3[nH]cc(N4Cc5cccc(N(C)C)c5C4=O)c3n2)cc1 [Compound I-45, 7-(dimethylamino)-2-(2-(4-(isopropylsulfonyl)phenyl)-5H-pyrrolo[2,3-b]pyrazin-7-yl)isoindolin-1-one]
0.05 to 0.1 | CC(C)S(=O)(=O)c1ccc(-c2cnc3[nH]cc(N4Cc5cc(Br)ccc5C4=O)c3n2)cc1 [Compound I-9, 5-bromo-2-(2-(4-(isopropylsulfonyl)phenyl)-5H-pyrrolo[2,3-b]pyrazin-7-yl)isoindolin-1-one]
≤ 0.05 | CC(C)(C#N)c1cc(-c2cnc3[nH]cc(N4Cc5ccccc5C4=O)c3n2)ccn1 [Compound I-6, 2-methyl-2-(4-(7-(1-oxoisoindohn-2-yl)-5H-pyrrolo[2,3-b]pyrazin-2-yl)pyridin-2-yl)propanenitrile]
≤ 0.05 | CC(C)S(=O)(=O)c1ccc(-c2cnc3[nH]cc(N4Cc5cccc(CN)c5C4=O)c3n2)cc1 [Compound I-19, 7-(aminomethyl)-2-(2-(4-(isopropylsulfonyl)phenyl)-5H-pyrrolo[2,3-b]pyrazin-7-yl)isoindolin-1-one]
≤ 0.05 | CC(C)S(=O)(=O)c1ccc(-c2cnc3[nH]cc(N4Cc5cc(OCCN(C)C)ccc5C4=O)c3n2)cc1 [Compound I-47, 5-(2-(dimethylamino)ethoxy)-2-(2-(4-(isopropylsulfonyl)phenyl)-5H-pyrrolo[2,3-b]pyrazin-7-yl)isoindolin-1-one]
≤ 0.05 | CC(C)S(=O)(=O)c1ccc(-c2cnc3[nH]cc(N4C(=O)c5ccccc5C4CCO)c3n2)cc1 (centres unmarked) [Compound I-48, 3-(2-hydroxyethyl)-2-(2-(4-(isopropylsulfonyl)phenyl)-5H-pyrrolo[2,3-b]pyrazin-7-yl)isoindolin-1-one]
≤ 0.05 | O=C1c2c(Cl)cccc2CN1c1c[nH]c2ncc(-c3ccc(S(=O)(=O)C4CCCNC4)cc3)nc12 (centres unmarked) [Compound I-24, 7-chloro-2-(2-(4-(piperidin-3-ylsulfonyl)phenyl)-5H-pyrrolo[2,3-b]pyrazin-7-yl)isoindolin-1-one]
≤ 0.05 | CC(C)S(=O)(=O)c1ccc(-c2cnc3[nH]cc(N4Cc5cc(N6CC[C@H](CN)C6)ccc5C4=O)c3n2)cc1 [Compound I-29, (R)-5-(3-(aminomethyl)pyrrolidin-1-yl)-2-(2-(4-(isopropylsulfonyl)phenyl)-5H-pyrrolo[2,3-b]pyrazin-7-yl)isoindolin-1-one]
≤ 0.05 | CC(C)S(=O)(=O)c1ccc(-c2cnc3[nH]cc(N4Cc5cc(NC6CNC6)ccc5C4=O)c3n2)cc1 [Compound I-39, 5-(azetidin-3-ylamino)-2-(2-(4-(isopropylsulfonyl)phenyl)-5H-pyrrolo[2,3-b]pyrazin-7-yl)isoindolin-1-one]
≤ 0.05 | CC(C)S(=O)(=O)c1ccc(-c2cnc3[nH]cc(N4Cc5cc(N6CC[C@H](N)C6)ccc5C4=O)c3n2)cc1 [Compound I-41, (S)-5-(3-aminopyrrolidin-1-yl)-2-(2-(4-(isopropylsulfonyl)phenyl)-5H-pyrrolo[2,3-b]pyrazin-7-yl)isoindolin-1-one]
≤ 0.05 | CC(C)S(=O)(=O)c1ccc(-c2cnc3[nH]cc(N4Cc5ccc(N6CC[C@@H](N)C6)cc5C4=O)c3n2)cc1 [Compound I-25, (R)-6-(3-aminopyrrolidin-1-yl)-2-(2-(4-(isopropylsulfonyl)phenyl)-5H-pyrrolo[2,3-b]pyrazin-7-yl)isoindolin-1-one]
≤ 0.05 | CC(C)S(=O)(=O)c1ccc(-c2cnc3[nH]cc(N4Cc5cc(N(C)CCCN(C)C)ccc5C4=O)c3n2)cc1 [Compound I-36, 5-((3-(dimethylamino)propyl)(methyl)amino)-2-(2-(4-(isopropylsulfonyl)phenyl)-5H-pyrrolo[2,3-b]pyrazin-7-yl)isoindolin-1-one]
0.05 to 0.1 | CC(C)S(=O)(=O)c1ccc(-c2cnc3[nH]cc(N4Cc5cc(N6CCC(CN)CC6)ccc5C4=O)c3n2)cc1 [Compound I-33, 5-(4-(aminomethyl)piperidin-1-yl)-2-(2-(4-(isopropylsulfonyl)phenyl)-5H-pyrrolo[2,3-b]pyrazin-7-yl)isoindolin-1-one]
≤ 0.05 | CC(C)S(=O)(=O)c1ccc(-c2cnc3[nH]cc(N4Cc5cc(NCC6CCCNC6)ccc5C4=O)c3n2)cc1 (centres unmarked) [Compound I-40, 2-(2-(4-(isopropylsulfonyl)phenyl)-5H-pyrrolo[2,3-b]pyrazin-7-yl)-5-((piperidin-3-ylmethyl)amino)isoindolin-1-one]
≤ 0.05 | CC(C)S(=O)(=O)c1ccc(-c2cnc3[nH]cc(N4Cc5cc(N6CCC(N(C)C)CC6)ccc5C4=O)c3n2)cc1 [Compound I-37, 5-(4-(dimethylamino)piperidin-1-yl)-2-(2-(4-(isopropylsulfonyl)phenyl)-5H-pyrrolo[2,3-b]pyrazin-7-yl)isoindolin-1-one]

SMILES | Ki [µM]
CC(C)S(=O)(=O)c1ccc(-c2cnc3[nH]cc(N4Cc5cc(N(C)C6CCNCC6)ccc5C4=O)c3n2)cc1 [Compound I-31, 2-(2-(4-(isopropylsulfonyl)phenyl)-5H-pyrrolo[2,3-b]pyrazin-7-yl)-5-(methyl(piperidin-4-yl)amino)isoindolin-1-one] | ≤ 0.05
